Laboratory results published in the NIST ThermoML archive (doi:10.1021/je500886a).

Test: mn = molality of the nth substance listed, in mol/kg
Details: 101 kPa, Liquid

OC[C@@H](O)[C@H](O)[C@H](O)[C@@H](O)CO [dulcitol] + O
Details | mass density, 288.15 K [kg/m3] | mass density, 298.15 K [kg/m3] | mass density, 308.15 K [kg/m3] | mass density, 318.15 K [kg/m3] | viscosity, 288.15 K [mPa·s] | viscosity, 298.15 K [mPa·s] | viscosity, 308.15 K [mPa·s] | viscosity, 318.15 K [mPa·s]
m1 = 0.0503 | – | – | – | – | 1.164 | 0.909 | 0.732 | 0.605
m1 = 0.05086 | 1002.35 | 1000.21 | 997.18 | 993.33 | – | – | – | –
m1 = 0.07104 | – | – | – | – | 1.175 | 0.916 | 0.737 | 0.609
m1 = 0.0735 | 1003.75 | 1001.6 | 998.55 | 994.68 | – | – | – | –
m1 = 0.08768 | 1004.62 | 1002.46 | 999.39 | 995.51 | – | – | – | –
m1 = 0.08872 | – | – | – | – | 1.185 | 0.921 | 0.743 | 0.612
m1 = 0.1066 | 1005.78 | 1003.6 | 1000.52 | 996.63 | – | – | – | –
m1 = 0.1091 | – | – | – | – | 1.196 | 0.928 | 0.747 | 0.616
m1 = 0.1279 | 1007.07 | 1004.88 | 1001.77 | 997.86 | – | – | – | –
m1 = 0.1283 | – | – | – | – | 1.204 | 0.935 | 0.752 | 0.619
m1 = 0.1457 | 1008.14 | 1005.94 | 1002.81 | 998.89 | – | – | – | –
m1 = 0.1468 | – | – | – | – | 1.215 | 0.941 | 0.757 | 0.622

[Br-].[NH4+] [ammonium bromide] + O
Details | mass density, 288.15 K [kg/m3] | mass density, 298.15 K [kg/m3] | mass density, 308.15 K [kg/m3] | mass density, 318.15 K [kg/m3] | viscosity, 288.15 K [mPa·s] | viscosity, 298.15 K [mPa·s] | viscosity, 308.15 K [mPa·s] | viscosity, 318.15 K [mPa·s]
m1 = 0.05 | 1001.05 | 998.76 | 995.75 | 992.91 | 1.132 | 0.888 | 0.719 | 0.597
m1 = 0.5 | 1024.05 | 1021.81 | 1019.06 | 1015.68 | 1.096 | 0.87 | 0.71 | 0.598
m1 = 1 | 1049.01 | 1046.88 | 1043.31 | 1040.33 | 1.057 | 0.853 | 0.697 | 0.6
m1 = 2 | 1095.99 | 1092.56 | 1088.78 | 1085.68 | 1.002 | 0.827 | 0.678 | 0.602

O=C(CO)[C@@H](O)[C@H](O)[C@@H](O)CO [L-sorbose] + O
Details | mass density [kg/m3] | viscosity [mPa·s]
288.15 K, m1 = 0.04909 | – | 1.162
288.15 K, m1 = 0.05105 | 1002.68 | –
288.15 K, m1 = 0.06584 | 1003.7 | –
288.15 K, m1 = 0.0704 | – | 1.173
288.15 K, m1 = 0.08456 | – | 1.182
288.15 K, m1 = 0.08815 | 1005.22 | –
288.15 K, m1 = 0.1091 | – | 1.195
288.15 K, m1 = 0.1289 | – | 1.206
288.15 K, m1 = 0.1505 | 1009.38 | –
288.15 K, m1 = 0.1507 | – | 1.216
298.15 K, m1 = 0.04909 | – | 0.907
298.15 K, m1 = 0.05105 | 1000.57 | –
298.15 K, m1 = 0.06584 | 1001.57 | –
298.15 K, m1 = 0.0704 | – | 0.916
298.15 K, m1 = 0.08456 | – | 0.923
298.15 K, m1 = 0.08815 | 1003.06 | –
298.15 K, m1 = 0.1073 | 1004.33 | –
298.15 K, m1 = 0.1091 | – | 0.931
298.15 K, m1 = 0.1507 | – | 0.947
308.15 K, m1 = 0.04909 | – | 0.733
308.15 K, m1 = 0.06584 | 998.56 | –
308.15 K, m1 = 0.0704 | – | 0.738
308.15 K, m1 = 0.08815 | 1000.04 | –
308.15 K, m1 = 0.1073 | 1001.3 | –
308.15 K, m1 = 0.1091 | – | 0.75
308.15 K, m1 = 0.1289 | – | 0.756
308.15 K, m1 = 0.1317 | 1002.89 | –
308.15 K, m1 = 0.1505 | 1004.1 | –
308.15 K, m1 = 0.1507 | – | 0.762
318.15 K, m1 = 0.04909 | – | 0.606
318.15 K, m1 = 0.05105 | 993.72 | –
318.15 K, m1 = 0.06584 | 994.7 | –
318.15 K, m1 = 0.0704 | – | 0.611
318.15 K, m1 = 0.08456 | – | 0.615
318.15 K, m1 = 0.08815 | 996.17 | –
318.15 K, m1 = 0.1073 | 997.41 | –
318.15 K, m1 = 0.1091 | – | 0.62
318.15 K, m1 = 0.1289 | – | 0.624
318.15 K, m1 = 0.1317 | 998.98 | –
318.15 K, m1 = 0.1505 | 1000.18 | –
318.15 K, m1 = 0.1507 | – | 0.629

O=C[C@H](O)[C@@H](O)[C@H](O)CO [D-xylose] + O
Details | mass density, 288.15 K [kg/m3] | mass density, 298.15 K [kg/m3] | mass density, 308.15 K [kg/m3] | mass density, 318.15 K [kg/m3] | viscosity, 288.15 K [mPa·s] | viscosity, 298.15 K [mPa·s] | viscosity, 308.15 K [mPa·s] | viscosity, 318.15 K [mPa·s]
m1 = 0.0491 | 1001.82 | 999.72 | 996.71 | 992.87 | – | – | – | –
m1 = 0.04924 | – | – | – | – | 1.161 | 0.904 | 0.73 | 0.605
m1 = 0.06784 | – | – | – | – | 1.167 | 0.911 | 0.735 | 0.609
m1 = 0.07084 | 1002.99 | 1000.89 | 997.87 | 994.02 | – | – | – | –
m1 = 0.08985 | 1004.02 | 1001.9 | 998.88 | 995.03 | – | – | – | –
m1 = 0.09005 | – | – | – | – | 1.176 | 0.917 | 0.74 | 0.612
m1 = 0.1038 | – | – | – | – | 1.183 | 0.921 | 0.743 | 0.615
m1 = 0.1144 | 1005.32 | 1003.21 | 1000.16 | 996.31 | – | – | – | –
m1 = 0.1285 | – | – | – | – | 1.19 | 0.929 | 0.749 | 0.62
m1 = 0.1303 | 1006.16 | 1004.04 | 1000.99 | 997.13 | – | – | – | –
m1 = 0.1485 | 1007.12 | 1005 | 1001.94 | 998.07 | – | – | – | –
m1 = 0.151 | – | – | – | – | 1.201 | 0.936 | 0.754 | 0.624
